Data set [1] has as its system DIO-NASH mice. Kind of data set: Hepatic triglyceride content, 40 days in DIO-NASH mice (Example 1). It counts as in vivo. The conditions noted are these: ELA 10 mg/kg/day, SEMA 10 nmol/kg/day, 40 days (FIG. 3). On the procedure:
(§1) The effects of elafibranor alone, semaglutide alone and the combination of both were assessed in DIO-NASH mice (C57BL6JRj mice fed with a Amylin Liver NASH Model diet (AMLN) (Research Diet, 40% fat (18% trans-fat), 40% carbohydrate (20% fructose), and 2% cholesterol) (36 weeks prior to study start). 41 weeks old male DIO-NASH mice were fed a vehicule (n=12), or vehicule supplemented with elafibranor (10 mg/kg/day), or semaglutide alone (10 nmol/kg) (titration to final dose over 5 days using increments of 0.08 mg/mL) or in combination (n=12 per group).
On the last day of treatment, plasma samples were obtained after cardiac puncture blood sampling and mice were sacrificed. The liver was rapidly excised for biochemical and histological analyses.
Approximately 100 mg of frozen liver tissue were homogenized with a tissue homogenizer (Precellys®24, Bertin Technologies, France) in 150 mM NaCl buffer, containing 15.4 mM NaN3. Lipid fractions in homogenates were extracted with chloroform—methanol (2:1, v/v) followed by measurement of the triglycerides (Biolabo cat #80019).

For data set [2], the system named is DIO-NASH mice. Kind of data set: Glycemia (plasma glucose), 40 days in DIO-NASH mice (Example 1). The conditions noted are these: ELA 10 mg/kg/day, SEMA 10 nmol/kg/day, 40 days (FIG. 4). It counts as in vivo. On the procedure: as §1
(§2) Sampling from tail vein were done during the protocol for, blood glucose, plasma insulin, alanine transaminase, aspartate transaminase, triglycerides, total cholesterol dosages.
The plasma glucose level was measured using the Randox kit for Daytona automate (Randox, cat #GL 3815) according to the manufacturer's recommendations. This method was based on a colorimetric assay without any deproteinization of the sample. Briefly, glucose oxidase digestion of the sample led to hydrogen peroxide synthesis. In the presence of phenol and 4-aminophenazone, the hydrogen peroxide was catalyzed by a peroxidase and formed a dye: the quinoneimin. The coloration intensity was directly proportional to the glucose concentration and was measured at 505 nm. Results were expressed in mg/dL.

The subject of data set [3] is DIO-NASH mice. Kind of data set: Insulinemia (plasma insulin), 40 days in DIO-NASH mice (Example 1). The data set is classed as in vivo. The conditions noted are these: ELA 10 mg/kg/day, SEMA 10 nmol/kg/day, 40 days (FIG. 5). On the procedure: as §1, §2
The plasmatic insulin was measured using a solid phase two-site enzyme immunoassay from Crystal Chem Inc. (cat #90010). Briefly, 95 μL of guinea-pig anti-insulin serum and 5 μL of diluted sample (or standard) were dispensed per well into a 96-well plate. […] The reaction was then stopped by adding 100 μL of stop solution and absorbance was immediately measured at 450 nm (subtracting wave length: 630 nm). The intensity of the coloration was proportional to the amount of insulin initially present in the sample and was calculated using a standard serum. […]

Data set [4] relates to DIO-NASH mice. As to the kind of experiment: Histological assessment of NASH, 12 weeks in DIO-NASH mice (Example 3). The data set is classed as in vivo. The conditions noted are these: monotherapy low dose ELA 10 mg/kg/day or SEMA 0.3 nmol/kg/day. On the procedure: Male C57BL/6JRj mice were fed with the AMLN diet 35 weeks prior to study start (DIO-NASH model). Mice with biopsy confirmed steatosis (score ≥2) and fibrosis (score ≥1) were randomized into treatment groups (n=12-14 per group). Mice received either vehicles, elafibranor (10 mg/kg/day, per os), semaglutide (0.3 nmol/kg/day, SC) or both elafibranor and semaglutide for 12 weeks. Suboptimal drug doses were used in this study. To avoid SEMA-induced hypophagia, an up-titration protocol was applied during the first 3 weeks of treatment.
On the last day of treatment, plasma samples were obtained after cardiac puncture blood sampling and mice were sacrificed. The liver was rapidly excised for histology and biochemical and transcriptomic analyses.
Liver sections were prepared and stained with hematoxylin eosin safranin (HES) as described in Example 1. The histological features of NASH (steatosis, ballooning, lobular inflammation and fibrosis) were assessed using the NASH Clinical Research Network Scoring System by operators blinded to the experimental groups (Kleiner 2005, Brunt 1999). Steatosis score, activity index (hepatocyte ballooning+lobular inflammation) and NAFLD activity score (NAS) were calculated. Number of inflammatory foci was counted per field using a 200× magnification.

The subject of data set [5] is TNFα secretion in LPS-activated macrophages (THP-1). Kind of data set: TNFα secretion in LPS-activated THP-1 macrophages, combination matrix, HTRF (Example 4). To be noted: GLP-1 receptor agonist alone; LPS-activated THP1 macrophages (FIGS. 11A-B). The data set is classed as cell-based, Human. As for the experimental part: Human_THP-1 monocytes were seeded at a density of 25,000 cells per well in 384-well plate in RPMI1640 (Gibco, 21875) supplemented with 10% FBS, 1% Penicillin-streptomycin (Gibco, 15140122) and 25 mM Hepes (Gibco, 15630080) and differentiated into macrophages using PMA (Phorbol 12-myristate 13-acetate, Sigma, P8139) at the final concentration of 100 ng/ml for 24 hours.
A 2 component combination matrix was prepared. ELA and GLP-1 receptor agonists stocks were serially diluted in DMSO in 3-points series in a row (ELA) and a 8-points series in a column of a 96-well plate for GLP1RA. Subsequently, the 3×8 combination matrix was generated by 1:1 mixing of all single agent concentrations.
After 24 hrs with PMA, medium was removed, and replaced by serum free RPMI. […]
Synergism between compounds was determined using the Excess Over Bliss (EOB) method.
The values obtained in the TNFα HTRF assay were first transformed into percentage inhibitions over LPS control. Then, using these percentage inhibitions, EOB were calculated. Expected Bliss additivism score (E) was firstly determined by the equation: E=(A+B)−(A×B) where A and B are the percentage inhibition of elafibranor (A) and GLP-1 analogue (B) at a given dose.
The total Bliss score was calculated by addition of all EOB.
A general note: Time-resolved FRET reads energy transfer from a long-lived donor to a nearby acceptor.

Data set [6] relates to DIO-NASH mice. Kind of data set: Plasma ALT and CRP in DIO-NASH mice, low/high dose semaglutide (Example 7). It counts as in vivo. On the procedure: (§3) The effects of elafibranor alone, semaglutide (low and high doses) alone and their combination were assessed in DIO-NASH mice (C57BL6JRj mice fed with a Amylin Liver NASH Model diet (AMLN) (Research Diet, 40% fat (18% trans-fat), 40% carbohydrate (20% fructose), and 2% cholesterol) (35 weeks prior to study start). Mice with biopsy confirmed steatosis (score≥2) and fibrosis (score≥1) were randomized into treatment groups (n=12 per group). Mice received either vehicles, elafibranor (10 mg/kg/day, per os), low-dose semaglutide (0.3 nmol/kg/day, SC), high-dose semaglutide (10 nmol/kg/day, SC) or elafibranor (10 mg/kg/day) and semaglutide (0.3 nmol/kg/day) in combination.
On the last treatment day, plasma samples were obtained after cardiac puncture blood sampling and mice were sacrificed. The liver was rapidly excised for transcriptomic analyses.
Alanine aminotransferase (ALT) level was measured using Cobas™ C-501 autoanalyzer according to the manufacturer's instructions. C-reactive protein (CRP) concentration was measured by ELISA (Mouse C-Reactive Protein/CRP Immunoassay MCRP00, R&D Systems).

Data set [7] has as its system DIO-NASH mice. As to the kind of experiment: Liver transcriptomic and gene ontology analysis in DIO-NASH mice (Example 7). The data set is classed as in vivo. As for the experimental part:
as §3, with “combination. […]” for “combination.”
Total RNA was isolated from mice livers using Nucleospin® 96 RNA kit (Macherey Nagel) following manufacturer's instructions. […] The parameters used are an end minimum quality level of 25 and a minimum read length of 50. The unaligned reads were aligned to the Mus musculus mm10 reference genome using the software STAR version 2.5.3. […] Briefly, the count matrix produced by FeatureCounts was analyzed by the DESeqDataSetFromMatrix( ) function followed by the DEseq( ) function from the DESeq2 library. […]
Each metascape analysis was exported as Excel file. The files were imported in R V using the read_excel function from the readxl library (version 1.3.1). […]

Data set [8] has as its system NASH-B6 mice. As to the kind of experiment: Body weight, adiposity and food intake, 8 weeks in NASH-B6 mice (Example 6). It counts as in vivo. The conditions noted are these: liraglutide 0.02 mg/kg/day, 8 weeks (FIG. 13B). As for the experimental part:
Male C57BL/6NTac mice (Taconic, USA) were fed with the GAN diet (D09100310 Research Diet) 31 weeks prior to study start to induce NASH pathology (NASH-B6 model). Prior to treatment, blood was collected by retro-orbital sinus puncture after a 6 h-fasting period to measure plasma ALT, AST, TIMP Metallopeptidase Inhibitor 1 (TIMP1, a surrogate marker of liver fibrosis). Blood glucose was measured directly from the tail vein using a WellionVet glucometer (CALEA) after a 6 h-fasting period. Ketone bodies (KB) was also measured directly from the tail vein using a FreeStyle Optium Neo ketometer. Mice were randomized into treatment groups (n=10/group) based on body weight, glycemia, ketonemia and plasma ALT, AST and TIMP1. They received either vehicles, elafibranor (3 mg/kg/day, per os), liraglutide (0.01 mg/kg, BID, SC) or both elafibranor and liraglutide for 8 weeks. To avoid GLP-1 receptor agonist-induced hypophagia, an up-titration protocol was applied for liraglutide during the first 3 weeks of treatment (starting with 0.001 mg/kg BID). Vehicle-dosed chow-fed mice served as additional controls (R03-10 U8211G10R, SAFE).
Body weight and food intake were monitored each day during the treatment period. On the last day of treatment, serum samples were obtained after retro-orbital sinus puncture blood sampling and mice were sacrificed. […]

As for “semaglutide: commercially available GLP-1 receptor agonist”, the “liver fat / hepatic triglyceride content” value in data set [1] is “significant beneficial effect”. Further, in data set [2], the glycemia result was “no beneficial effect”. Besides, the insulinemia result in data set [3] was “significant beneficial effect”. In addition, the “mice showing NAS reduction beyond 1 stage” value in data set [4] is “None of the mice”. Moreover, the “maximal effect, TNFα inhibition” value in data set [5] amounted to 29%. The “decrease of plasma CRP relative to AMLN-fed vehicle group” value in data set [6] (high-dose semaglutide 10 nmol/kg/day SC (FIG. 18)) was found to be 43%. In addition, in data set [6] (low dose semaglutide 0.3 nmol/kg/day SC (FIG. 17)), the “effect on plasma ALT” value is reported as “inefficient”. The “effect on plasma CRP” value in data set [6] (low-dose semaglutide 0.3 nmol/kg/day SC (FIG. 18)) was “inefficient”. In addition, the “hepatic gene signature (gene ontology: inflammatory response, cytokine production, immune cell activation and migration)” value in data set [7] (high-dose semaglutide 10 nmol/kg/day (FIG. 19)) is “reverted the pathological signature”. Besides, the “hepatic gene signature (gene ontology: inflammatory pathways)” value in data set [7] (low-dose SEMA 0.3 nmol/kg/day (FIG. 19)) is “inefficient”.
Regarding `CCCCCCCCCCCCCCCC(=O)N[C@@H](CCC(=O)NCCCC[C@H](NC(=O)[C@H](C)NC(=O)[C@H](C)NC(=O)[C@H](CCC(N)=O)NC(=O)CNC(=O)[C@H](CCC(=O)O)NC(=O)[C@H](CC(C)C)NC(=O)[C@H](Cc1ccc(O)cc1)NC(=O)[C@H](CO)NC(=O)[C@H](CO)NC(=O)[C@@H](NC(=O)[C@H](CC(=O)O)NC(=O)[C@H](CO)NC(=O)[C@@H](NC(=O)[C@H](Cc1ccccc1)NC(=O)[C@@H](NC(=O)CNC(=O)[C@H](CCC(=O)O)NC(=O)[C@H](C)NC(=O)[C@@H](N)Cc1cnc[nH]1)[C@@H](C)O)[C@@H](C)O)C(C)C)C(=O)N[C@@H](CCC(=O)O)C(=O)N[C@@H](Cc1ccccc1)C(=O)N[C@H](C(=O)N[C@@H](C)C(=O)N[C@@H](Cc1c[nH]c2ccccc12)C(=O)N[C@@H](CC(C)C)C(=O)N[C@H](C(=O)N[C@@H](CCCNC(=N)N)C(=O)NCC(=O)N[C@@H](CCCNC(=N)N)C(=O)NCC(=O)O)C(C)C)[C@@H](C)CC)C(=O)O` [liraglutide], the “hypophagia (energy consumption)” value in data set [8] is “no hypophagia effect”.
